Columns and labels:
[1] = tested on: thoracic aorta of male rabbits contracted with potassium chloride; test: Vasodilating action on aortic spiral strip contracted with potassium chloride; set-up: species or system rabbit; conditions: potassium chloride contraction
Protocol: (§1) The thoracic aorta of male rabbits weighing 2.5-3 kg was excised and aortic specimens of spiral strip 25-30 mm in length were prepared. […] The specimen was cumulatively administered with H-Asp-Gly-Lys-OH, H Ser-Asp-Gly-Lys-OH, or H-Asp-Ser-Asp-Gly-Lys-OH or H-Ala-Asp-Ser-Asp-Gly-Lys-OH, and relaxation reaction of the blood vessel was observed. As comparative drug were employed nitroprusside (sodium salt) and verapamil.

[2] = tested on: thoracic aorta of male rabbits contracted with norepinephrine; test: Vasodilating action on aortic spiral strip contracted with norepinephrine; set-up: species or system rabbit; conditions: norepinephrine contraction
Protocol: as §1

[3] = tested on: IL-6; test: Productivity of humoral factors by lymphocytes: IL-6; type: cell-based, human (healthy adult); conditions: for IL-6: cultivation for a week, control 270; for production of IL-6: summary of Table 7
Protocol: (§2) Mononuclear cells separated by the density centrifugal method from blood of a healthy adult drawn in the presence of heparin were suspended in an RPMI-1640 culture medium containing 10% by volume of FBS. The suspension was divided into culture tubes (Falcon 2054) each at a concentration of 1×10^6 cells/ml, to which the captioned peptides were respectively added. Cultivation was made in an incubator for a week. After completion of the cultivation, the culture was centrifuged (1,500 rpm, 10 min.), and the supernatant collected and assayed for humoral factors. Interleukin 1 (IL-1) and tumor-nectrotizing factors were measured, respectively by a IL-1 radioimmunoassay kit (manufactured by Amersham International) and a TNF radioimmunoassay kit (manufactured by Medgenix). Measurement of interleukin 6 (IL-6) was made by the enzyme immunoassay method (ELISA) using IL-6 antibody (manufactured by Genzyme). Results of the measurements are shown in Table 7 wherein figures represent mean value±standard error.

[4] = tested on: lymphocytes (mononuclear cells from blood of a healthy adult); test: Blast formation of lymphocytes stimulated with various lectins (3H-thymidine uptake); type: cell-based, human (healthy adult); conditions: for uptake of 3H-thymine by the lymphocytes stimulated with a lectin: particularly Con-A; for uptake of 3H-thymine by the lymphocytes stimulated with a lectin / influence upon uptake of 3H-thymine by lymphocytes in the absence of a mitogen: summary of Tables 3-6; for influence upon uptake of 3H-thymine by lymphocytes in the absence of a mitogen: no mitogen
Protocol: Mononuclear cells were collected by the density centrifugal method from blood of a healthy adult drawn in the presence of heparin and suspended in an RPMI-1640 culture medium (manufactured by Gibco) containing 10% by volume of bovine fetus serum (called FBS, manufactured by Dainihon Seiyaku). The suspension, adjusted to a concentration of 1×10^6 cells/ml, was divided into a 96-well Falcon microplate (manufactured by Becton Dickinson) in a volume of 100 μl/well. Then, a lectin, 1 μg/ml of PHA (phytohemagglutinin), 10 μg/ml of Con-A (concanavalin A) or 15 μg/ml of PWM (pokeweed mitogen) and one of the captioned peptides at a predetermined concentration were added followed by addition of a 10% FBS containing RPMI-1640 medium to a final liquid volume of 200 μl. Cultivation was made in a 5% by volume CO2 incubator at 37° C. for 72 hours, and 24 hours before completion of the cultivation 5 μCi of ^3 H-thymidine was added. The cells were recovered by a cell harvester (manufactured by Bio-Lab), and uptake of the ^3 H-thymidine was measured by a scintillation counter. Results of the measurement are shown in Table 3-Table 6 wherein figures indicate mean count (cpm)±standard error.

[5] = tested on: IL-1; test: Productivity of humoral factors by lymphocytes: IL-1; type: cell-based, human (healthy adult); conditions: for IL-1: cultivation for a week, control 7.1; for production of IL-1: summary of Table 7
Protocol: as §2

[6] = tested on: TNF; test: Productivity of humoral factors by lymphocytes: TNF; type: cell-based, human (healthy adult); conditions: for TNF: cultivation for a week, control 2,020; for production of TNF: summary of Table 7
Protocol: as §2

[7] = tested on: intraperitoneal mast cells of the rats; test: Inhibitory activity on histamine release from passively sensitized rat mast cells; type: cell-based; conditions: for inhibitory activity on histamine release: at a concentration of 10^-5 M or higher, FIG. 5-7; for potency of histamine release inhibition compared with H-Asp-Ser-Asp-Pro-Arg-OH: versus comparative drug H-Asp-Ser-Asp-Pro-Arg-OH; for potency of histamine release inhibition compared with cromoglycate: versus cromoglycate
Protocol: Male Wistar rats weighing 300-350 g were passively sensitized, and intraperitoneal mast cells of the rats were employed for the test. Rat antiserum used in the passive sensitization was prepared in accordance with the method of Mota [Immunology, 7, p. 681 (1964)] and the method of Hamaoka [J. Immunology, 113, p. 958 (1974)]. Male Wistar rats (weighing 200-250 g) each were injected ovalbumin (10 mg/kg) in a volume of 5 ml/kg intramuscularly on both thighs and simultaneously 2×10^10 cells of killed Bordetella pertussis were intraperitoneally administered to immunize the animal. Blood was drawn from the animal under ether anesthesia via the abdominal aorta on day 12 of the initial sensitization,from which antiserum was separated. The antiserum was lyophilized and stored at -20° C. Titer of the antiserum was assayed by the 48-hour rat PCA reaction. […] The anti-albumin IgE serum of the rat was two fold diluted, and 1 ml of the diluted serum was intraperitoneally administered to sensitize the animal. The rat was killed by blooding 48 hours after the sensitization, and 15 ml of a phosphate buffered saline (NaCl 8 g, KCl 0.2 g, Na2 HPO4.12H2 O 2.88 g, KH2 PO4 0.2 g, EDTA.2Na 0.2 g and bovine serum albumin 1 g, dissolved in purified water to make 1 liter, pH 7.4 (called PBS(-) hereinbelow) was intraperitoneally injected. The rat was then given light abdominal massage for about 2 min. and subjected to laparotomy to collect cells in the abdominal cavity. The cell suspension was centrifuged (1,000 rpm, 10 min.) and then resuspended in PBS(-). The PBS(-) suspension was overlayered on gum arabic density (specific gravity 1.075) followed by centrifugal separation (2,500 rpm, 10 min.). Deposited cells were washed with PBS(-) and suspended in fresh PBS(+)[a solution in which the EDTA 2Na in PBS(-) is replaced by 0.1 g of CaCl2, called PBS(+)] and adjusted to 1×10^5 cells/ml. The cell suspension was divided into silicone-treated test tubes in a volume of 0.8 ml/tube, which were then preincubated at 37° C. for 10 min. In the cell suspension-containing test tube was placed 0.1 ml of a test solution from various solutions diluted with PBS(+) followed by incubation at 37° C. for 15 min. To the test tube was then added 0.1 ml of a mixed solution of ovalbumin antigen (final concentration 1 mg/ml) and phosphatidyl-L-serine (final concentration 100 μm/ml) followed by incubation for additional 15 min. to release histamine. For cromoglycate, one of the comparative drugs, the drug was added 30 sec. prior to the addition of the antigen, and incubation was then made for additional 15 min. The reaction was terminated by addition of 1 ml of ice-cooled PBS(+), and the reaction mixture was centrifuged at 2,500 rpm for 10 min. To 2 ml of the supernatant was added 1 ml of a 4% solution of perchloric acid, and the mixture was assayed for free histamine. For the assay of total histamine, a sample was prepared by placing 0.8 ml of a suspension of untreated mast cells in boiling water for 10 min. followed by addition of 4% perchloric acid.
Amount of histamine in the sample was assayed by fluorimetry, and percent histamine release (%) was calculated by the equation [formula]

[8] = Con-A (10 μg/ml), peptide 10^-6 M, control 37,800
[9] = Con-A (10 μg/ml), peptide 10^-8 M, control 37,800
[10] = PHA (1 μg/ml), peptide 10^-6 M, control 69,600
[11] = PHA (1 μg/ml), peptide 10^-8 M, control 69,600
[12] = PWM (15 μg/ml), peptide 10^-6 M, control 13,600
[13] = PWM (15 μg/ml), peptide 10^-8 M, control 13,600
[14] = mitogen None, peptide 10^-6 M, control 1,090
[15] = mitogen None, peptide 10^-8 M, control 1,090

Row | Compound | Percent relaxation ([1]; compound 10^-4 M) [%] | Percent relaxation ([1]; compound 10^-5 M) [%] | Percent relaxation ([1]; compound 10^-6 M) [%] | Percent relaxation ([1]; compound 10^-7 M) [%] | Percent relaxation ([1]; compound 10^-8 M) [%] | Percent relaxation ([2]; compound 10^-4 M) [%] | Percent relaxation ([2]; compound 10^-5 M) [%] | Percent relaxation ([2]; compound 10^-6 M) [%] | Percent relaxation ([2]; compound 10^-7 M) [%] | Percent relaxation ([2]; compound 10^-8 M) [%] | IL-6 ([3]; additive 10^-6 M) [U/ml] | IL-6 ([3]; additive 10^-8 M) [U/ml] | production of IL-6 [3] | Uptake of 3H-thymidine by lymphocytes [4, 8] | Uptake of 3H-thymidine by lymphocytes [4, 9] | Uptake of 3H-thymidine by lymphocytes [4, 10] | Uptake of 3H-thymidine by lymphocytes [4, 11] | Uptake of 3H-thymidine by lymphocytes [4, 12] | Uptake of 3H-thymidine by lymphocytes [4, 13] | uptake of 3H-thymine by the lymphocytes stimulated with a lectin [4] | also measured
1 | COc1ccc(CCN(C)CCCC(C#N)(c2ccc(OC)c(OC)c2)C(C)C)cc1OC (stereo not drawn) [Verapamil, verapamil, reference compound] | 100 | 100 | 97.1 | 68.3 | 7.1 | 68.6 | 47.1 | 20.6 | 4.6 | 0 | – | – | – | – | – | – | – | – | – | – | –
2 | H-DSDGK-OH [DSDGK, H-Asp-Ser-Asp-Gly-Lys-OH] | – | – | – | – | – | – | – | – | – | – | 400 | 280 | promote production | 19,300 cpm | 17,900 cpm | 56,900 cpm | 62,000 cpm | 13,000 cpm | 9,550 cpm | strongly inhibit | Uptake of 3H-thymidine by lymphocytes [4, 14]: 877 cpm; Uptake of 3H-thymidine by lymphocytes [4, 15]: 887 cpm; influence upon uptake of 3H-thymine by lymphocytes in the absence of a mitogen [4]: little influence; IL-1 ([5]; additive 10^-6 M): 8.3 fM/ml; IL-1 ([5]; additive 10^-8 M): 7.3 fM/ml; production of IL-1 [5]: promote production; TNF ([6]; additive 10^-6 M): 4,270 pg/ml; TNF ([6]; additive 10^-8 M): 4,100 pg/ml; production of TNF [6]: promote production
3 | H-Ser-Asp-Gly-Lys-OH (H-SDGK-OH) [tetrapeptide] | 18.6 | 7.2 | 0 | 0 | 0 | 52.6 | 25.0 | 17.7 | 9.1 | 1.7 | 280 | 350 | promote production | 24,000 cpm | 24,200 cpm | 59,000 cpm | 62,100 cpm | 9,000 cpm | 10,000 cpm | strongly inhibit | inhibitory activity on histamine release [7]: clear inhibitory activity; potency of histamine release inhibition compared with H-Asp-Ser-Asp-Pro-Arg-OH [7]: higher; potency of histamine release inhibition compared with cromoglycate [7]: nearly equal to or higher; Uptake of 3H-thymidine by lymphocytes [4, 14]: 911 cpm; Uptake of 3H-thymidine by lymphocytes [4, 15]: 1,436 cpm; influence upon uptake of 3H-thymine by lymphocytes in the absence of a mitogen [4]: little influence; IL-1 ([5]; additive 10^-6 M): 11.2 fM/ml; IL-1 ([5]; additive 10^-8 M): 10.7 fM/ml; production of IL-1 [5]: promote production; TNF ([6]; additive 10^-6 M): 4,260 pg/ml; TNF ([6]; additive 10^-8 M): 3,620 pg/ml; production of TNF [6]: promote production
4 | H-ADSDGK-OH [ADSDGK, H-Ala-Asp-Ser-Asp-Gly-Lys-OH] | – | – | – | – | – | – | – | – | – | – | 270 | 270 | promote production | 21,500 cpm | 24,600 cpm | 63,000 cpm | 64,100 cpm | 13,600 cpm | 14,500 cpm | strongly inhibit | inhibitory activity on histamine release [7]: clear inhibitory activity; potency of histamine release inhibition compared with H-Asp-Ser-Asp-Pro-Arg-OH [7]: higher; potency of histamine release inhibition compared with cromoglycate [7]: nearly equal to or higher; Uptake of 3H-thymidine by lymphocytes [4, 14]: 900 cpm; Uptake of 3H-thymidine by lymphocytes [4, 15]: 797 cpm; influence upon uptake of 3H-thymine by lymphocytes in the absence of a mitogen [4]: little influence; IL-1 ([5]; additive 10^-6 M): 11.2 fM/ml; IL-1 ([5]; additive 10^-8 M): 11.3 fM/ml; production of IL-1 [5]: promote production; TNF ([6]; additive 10^-6 M): 3,620 pg/ml; TNF ([6]; additive 10^-8 M): 4,120 pg/ml; production of TNF [6]: promote production
5 | nitroprusside [reference compound] | 35.7 | 24.3 | 11.4 | 1.4 | 0 | 98.8 | 93.8 | 86.0 | 59.4 | 16.1 | – | – | – | – | – | – | – | – | – | – | –

From patent US5118669A, “Peptides and intermediates therefor useful as antiallergic agents, vasodilators and immunoregulators” (Hitachi Chemical Co., Ltd., priority 1989, dated 1992)
